US10597388B2, “Pyridazinone herbicides” (FMC CORPORATION, priority 2014, dated 2020)

Experiments:
Format in all cases: in vivo
[1] = test system: barnyardgrass (Echinochloa crus-galli); assay: Test C greenhouse herbicide test, pre- and postemergence
Method in brief: (§1)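 Greenhouse pots; pre-em on seeded loam:sand blend, post-em on 2–18 cm plants (1–4 leaf) in sphagnum peat/vermiculite medium. Formulation: non-phytotoxic solvent + surfactant. Read-out: visual % control (0–100) vs controls at 13–15 d.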

[2] = test system: blackgrass (Alopecurus myosuroides); assay: as above
Method in brief: as §1

corn (Zea mays) = assay: as above
Method in brief: as §1

[3] = test system: crabgrass, large (large crabgrass, Digitaria sanguinalis); assay: as above
Method in brief: as §1

[4] = test system: foxtail, giant (giant foxtail, Setaria faberii); assay: as above
Method in brief: as §1

[5] = test system: galium (catchweed bedstraw, Galium aparine); assay: as above
Method in brief: as §1

[6] = test system: johnsongrass (Sorghum halepense); assay: as above
Method in brief: as §1

[7] = test system: morningglory (Ipomoea coccinea); assay: as above
Method in brief: as §1

[8] = test system: oilseed rape (Brassica napus); assay: as above
Method in brief: as §1

[9] = test system: pigweed (Amaranthus retroflexus); assay: as above
Method in brief: as §1

[10] = test system: ragweed (common ragweed, Ambrosia elatior); assay: as above
Method in brief: as §1

soybean (Glycine max) = assay: as above
Method in brief: as §1

[11] = test system: velvetleaf (Abutilon theophrasti); assay: as above
Method in brief: as §1

[12] = test system: waterhemp (common waterhemp, Amaranthus rudis); assay: as above
Method in brief: as §1

[13] = test system: wheat (winter wheat, Triticum aestivum); assay: as above
Method in brief: as §1

kochia (Kochia scoparia) = assay: Test C greenhouse herbicide test, postemergence; details: for Plant response rating, Kochia: Postemergence
Method in brief: (§2)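 Visual injury scores (0–100, where 100 means complete control) were assigned 13 to 15 d after postemergence application, by comparison with untreated plants. Treated seedlings stood 2 to 18 cm tall, at the 1- to 4-leaf stage.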

[14] = test system: oat, wild (wild oat, Avena fatua); assay: Test C greenhouse herbicide test, postemergence; details: for Plant response rating, Oat, Wild: Postemergence
Method in brief: as §2

[15] = Postemergence, 31 g ai/ha, 0 to 100 scale (0 no effect, 100 complete control)
[16] = Postemergence, 125 g ai/ha, scale 0 to 100, 0 is no effect, 100 is complete control
[17] = Postemergence, 250 g ai/ha, scale 0 to 100, 0 no effect, 100 complete control, 13 to 15 d
[18] = Preemergence, 31 g ai/ha, scale 0 to 100, 0 is no effect, 100 is complete control
[19] = Preemergence, 62 g ai/ha, scale 0 to 100, 0 is no effect, 100 is complete control
[20] = Preemergence, 125 g ai/ha, scale 0 to 100, 0 is no effect, 100 is complete control
[21] = Preemergence, 250 g ai/ha, scale 0 to 100 (0 no effect, 100 complete control)
[22] = postemergence, 62 g ai/ha, scale 0 to 100, 0 no effect, 100 complete control
[23] = 125 g ai/ha, scale 0 to 100, 0 is no effect, 100 is complete control
[24] = 250 g ai/ha, scale 0 to 100, 0 no effect, 100 complete control, 13 to 15 d

CCOC(=O)Oc1c(C)nn(C)c(=O)c1-c1c(C)sc2ccc(C)cc12 [Compound 82]
40: Plant response rating, Blackgrass [2, 17] | Johnsongrass plant response rating [6, 21] | Oilseed Rape plant response rating [8, 22]
80: Blackgrass plant response rating [2, 21] | Crabgrass, Large plant response rating [3, 21] | Plant response rating, Foxtail, Giant [4, 17] | Plant response rating, Velvetleaf [11, 19] | Velvetleaf plant response rating [11, 22]
5: Plant response rating, Corn (corn (Zea mays); [17]) | Johnsongrass plant response rating [6, 22] | Plant response rating, Soybean (soybean (Glycine max); [16]) | Plant response rating, Wheat [13, 16] | Plant response rating, Wheat [13, 17]
95: Plant response rating, Galium [5, 16] | Plant response rating, Galium [5, 17] | Galium plant response rating [5, 21] | Galium plant response rating [5, 22] | Plant response rating, Morningglory [7, 20] | Morningglory plant response rating [7, 21] | Plant response rating, Pigweed [9, 18] | Plant response rating, Ragweed [10, 16] | Plant response rating, Ragweed [10, 17] | Ragweed plant response rating [10, 21] | Plant response rating, Velvetleaf [11, 16]
50: Plant response rating, Blackgrass [2, 18] | Plant response rating, Oilseed Rape [8, 16]
25: Plant response rating, Barnyardgrass [1, 16] | Barnyardgrass plant response rating [1, 22] | Corn plant response rating (corn (Zea mays); [21]) | Plant response rating, Crabgrass, Large [3, 18] | Foxtail, Giant plant response rating [4, 22]
20: Barnyardgrass plant response rating [1, 15] | Plant response rating, Corn (corn (Zea mays); [20]) | Plant response rating, Crabgrass, Large [3, 16] | Plant response rating, Crabgrass, Large [3, 19] | Crabgrass, Large plant response rating [3, 22]
35: Plant response rating, Blackgrass [2, 16] | Blackgrass plant response rating [2, 22] | Corn plant response rating (corn (Zea mays); [15])
75: Plant response rating, Oilseed Rape [8, 17]
90: Barnyardgrass plant response rating [1, 21] | Plant response rating, Foxtail, Giant [4, 20] | Plant response rating, Galium [5, 18] | Plant response rating, Galium [5, 19] | Plant response rating, Galium [5, 20] | Plant response rating, Morningglory [7, 19] | Plant response rating, Pigweed [9, 16] | Plant response rating, Pigweed [9, 17] | Pigweed plant response rating [9, 22] | Plant response rating, Ragweed [10, 19] | Plant response rating, Ragweed [10, 20] | Plant response rating, Velvetleaf [11, 17] | Velvetleaf plant response rating [11, 21] | Plant response rating, Waterhemp [12, 16] | Plant response rating, Kochia (kochia (Kochia scoparia); [23]) | Plant response rating, Kochia (kochia (Kochia scoparia); [24]) | Kochia plant response rating (kochia (Kochia scoparia); [22]) | Plant response rating, Oat, Wild [14, 23] | Plant response rating, Oat, Wild [14, 24]
98: Ragweed plant response rating [10, 22] | Plant response rating, Waterhemp [12, 17] | Waterhemp plant response rating [12, 22]
45: Plant response rating, Johnsongrass [6, 18]
30: Plant response rating, Barnyardgrass [1, 17] | Corn plant response rating (corn (Zea mays); [22]) | Plant response rating, Crabgrass, Large [3, 17]
65: Plant response rating, Blackgrass [2, 20] | Plant response rating, Johnsongrass [6, 19] | Plant response rating, Velvetleaf [11, 18]
60: Plant response rating, Blackgrass [2, 19] | Plant response rating, Foxtail, Giant [4, 16] | Plant response rating, Foxtail, Giant [4, 18] | Plant response rating, Johnsongrass [6, 20]
100: Foxtail, Giant plant response rating [4, 21] | Plant response rating, Morningglory [7, 16] | Plant response rating, Morningglory [7, 17] | Morningglory plant response rating [7, 22] | Plant response rating, Pigweed [9, 19] | Plant response rating, Pigweed [9, 20] | Pigweed plant response rating [9, 21] | Plant response rating, Soybean (soybean (Glycine max); [19]) | Plant response rating, Waterhemp [12, 18] | Plant response rating, Waterhemp [12, 19] | Plant response rating, Waterhemp [12, 20] | Waterhemp plant response rating [12, 21]
85: Plant response rating, Foxtail, Giant [4, 19] | Plant response rating, Morningglory [7, 18] | Oilseed Rape plant response rating [8, 21] | Plant response rating, Ragweed [10, 18] | Plant response rating, Velvetleaf [11, 20] | Oat, Wild plant response rating [14, 22]
10: Plant response rating, Barnyardgrass [1, 18] | Blackgrass plant response rating [2, 15] | Plant response rating, Corn (corn (Zea mays); [16]) | Plant response rating, Johnsongrass [6, 16] | Plant response rating, Johnsongrass [6, 17] | Plant response rating, Soybean (soybean (Glycine max); [17]) | Soybean plant response rating (soybean (Glycine max); [22])
70: Plant response rating, Barnyardgrass [1, 20] | Plant response rating, Crabgrass, Large [3, 20]
55: Plant response rating, Barnyardgrass [1, 19]
0: Plant response rating, Corn (corn (Zea mays); [18]) | Plant response rating, Corn (corn (Zea mays); [19]) | Plant response rating, Oilseed Rape [8, 18] | Plant response rating, Oilseed Rape [8, 19] | Plant response rating, Oilseed Rape [8, 20] | Plant response rating, Soybean (soybean (Glycine max); [18]) | Plant response rating, Soybean (soybean (Glycine max); [20]) | Soybean plant response rating (soybean (Glycine max); [21]) | Plant response rating, Wheat [13, 18] | Plant response rating, Wheat [13, 19] | Plant response rating, Wheat [13, 20] | Wheat plant response rating [13, 21] | Wheat plant response rating [13, 22]
